Assay results taken from patent US7696238B2, “Substituted benzo[d]isoxazol-3-yl amine compounds as analgesics” (Gruenenthal GmbH, priority 2005, dated 2010).

How the values were obtained:
[1] = molecular target: T1, KCNQ2/3 ion channel (KCNQ2/3-expressing CHO-K1 cells) (Homo sapiens, UniProt O43525+O43526); experiment: Fluorescence assay (FLIPR instrument, membrane potential dye) for substances acting agonistically on the KCNQ2/3 ion channel; type: cell-based; conditions: difference between maximum and minimum values, agonistic action detected from a value of −40 (and below)
T1 construct: expressed in transfected cells; host or cells: CHO-K1
Experimental: Pharmacological Test Methods I. Fluorescence Assay (FLIPR™ Instrument) for the Identification of Substances Acting Agonistically on the KCNQ2/3 Ion Channel
On the day before the experiment, KCNQ2/3-expressing CHO-K1 cells and CHO-K1 empty strain cells were seeded out onto coated poly-D-lysine black/clear plates (Falcon/BD Company; Order No.: 356640) in a concentration of 20000 cells/100 μl MEM alpha, 50 ml FCS, 5.5 ml PIS/G/solution (100×) and then incubated for 20-24 hours in an incubator (37° C., 5% CO2). On the day of the experiment the HBSS/hepes working solution and the FMP/HBSS/hepes mixture (Membrane Potential Assay Kit Red (FMP), bulk format Cat. No. R8123) were initially prepared according to the following protocol:
• 1000 ml 1× HBSS buffer (Hank's Balanced Salt Solution (1×) (Gibco; No. 14025)+10 ml hepes (1M stock solution, pH 7.4; hepes Na salt (Sigma Company; No. H7006-500 g; storage at 4° C. in a refrigerator) 2. 1× FMP/HBSS/hepes working solution: • 6 ml HBSS/hepes buffer are added to 5 ml of the FMP solution stored at −20° C. (preparation see below; thawing out at room temperature). The test substances (2 mM batch solution in 100% DMSO) contained in drug plates (Costar 96-well plates, catalogue No. 3795) were then diluted by adding HBSS/hepes buffer to a concentration of 30 μM (3× concentrated). The assay plates on which the cells grow were washed once with 200 μl HBSS/hepes (Cellwash Washer, Labsystems Company, catalogue No. 5161550) and the remaining volume was removed by tapping out the inverted plate twice. 100 μl of the FMP/HBSS/hepes working solution were then added in each case to the cell plates and incubated for 1 hour in the CO2 incubator at 37° C. and 5% CO2. The measurements are then carried out with a FLIPR III instrument from the Molecular Devices company (96-format, using the 540-590 nm band-pass filter in the #2 localization). In the experimental setup of the FLIPR software, filter #2 should be selected. The cell plates and the substance plates were fed alternately into the input stack. A signal test was carried out in each case with the cell plates before adding the substance. The test substances were then added via the pipetting unit of the FLIPR (added volume 50 μl, 3× concentrated, end concentration 10 μM) to the cavities of the cell plates in a total volume of 150 μl/well. The threshold data of the FLIPR program were as follows:
The pipette tips were washed after each pipetting procedure 3 times with 1% DMSO in water. The times of the measurement intervals after addition of the test substances are as follows:
Total measurement time: 6 min/plate
The test samples were evaluated by calculating the difference between the maximum and minimum values. EC50/IC50 values are calculated using the Graph Pad Prism software.
Preparation of the membrane potential loading buffer (membrane potential assay kit red (FMP), bulk format cat. No. R8123) according to the manufacturer's instructions:
10 ml of the 10× assay buffer (component B) were diluted with 90 ml of sterile water and then adjusted to pH 7.4 with 1.0N NaOH (1× assay buffer). One vessel with the FLIPR membrane potential assay component A was completely dissolved in 100 ml 1× assay buffer and thoroughly mixed for 10 minutes with a magnetic stirrer. 5 ml aliquots were then stored at −20° C. (storage shelf life ca. 2 weeks).
An agonistic action can be detected starting from a value of −40 (and below).

[2] = molecular target: T2, hKCNQ2/3 (stably transfected hKCNQ2/3 CHO-K1 cell line) (Homo sapiens, UniProt O43525+O43526); experiment: Voltage clamp (patch-clamp) measurements, current increase relative to retigabin; type: cell-based; conditions: test substance 10 μM at −40 mV; current increase standardized to retigabin (10 μM) effect
T2 construct: expressed in transfected cells; host or cells: CHO-K1
Experimental: II. Voltage Clamp Measurements
In order to confirm electrophysiologically a KCNQ2/3 agonistic action of the substances, patch-clamp measurements [see Hamill O P, Marty A, Neher E, Sakmann B, Sigworth F J: “Improved patch-clamp techniques for high-resolution current recording from cells and cell-free membrane patches”, Pflugers Arch. 1981 August; 391(2):85-100] were carried out in the voltage clamp mode on a stably transfected hKCNQ2/3 CHO-K1 cell line. After formation of the gigaseal the cells were first of all clamped at a holding potential of −60 mV. Depolarising voltage jumps were then applied up to a potential of +20 mV (increment: 20 mV, duration: 1 second), in order to confirm the functional expression of KCNQ2/3 typical currents. The substances were tested at a potential of −40 mV. The current increase induced by retigabin (10 μM) was first of all recorded on each cell at −40 mV as positive control. After completely washing out the retigabin effect (duration: 80 sec) the test substance (10 μM) was applied. The current increase induced by the test substance was standardized to the retigabin effect and stated as relative efficacy (see below).

Row | FLIPR membrane potential fluorescence change (ΔF %, max minus min); negative values indicate KCNQ2/3 agonism [1] [%] | Voltage clamp: relative efficacy with respect to retigabin [10 μM] [2] | Compound
1 | −45.5 | 0.8 | Cc1cc(C)cc(CNc2noc3cccc(N)c23)c1 [Example 174, N3-(3,5-dimethylbenzyl)-benzo[d]isoxazole-3,4-diamine]
2 | −57.7 | 0.59 | CCCCc1ccc(CNc2noc3cccc(N)c23)cc1 [Example 175, N3-(4-butylbenzyl)-benzo[d]isoxazole-3,4-diamine]
